Results from patent US20260184708A1, “PYRIDAZINONES AND METHODS OF USE THEREOF” (GFB (ABC), LLC, priority 2017, published 2026).
Where two headings read alike, the source gives them in different places.

Target: T1, TRPC4 (Homo sapiens, UniProt Q9UBN4)
T1 construct: expressed in transfected cells; host or cells: HEK-TREx (HekTrex-293), cell line ICLN-1694, tetracycline-induced
T1 sequence (Q9UBN4 1-982 isoform Q9UBN4-5): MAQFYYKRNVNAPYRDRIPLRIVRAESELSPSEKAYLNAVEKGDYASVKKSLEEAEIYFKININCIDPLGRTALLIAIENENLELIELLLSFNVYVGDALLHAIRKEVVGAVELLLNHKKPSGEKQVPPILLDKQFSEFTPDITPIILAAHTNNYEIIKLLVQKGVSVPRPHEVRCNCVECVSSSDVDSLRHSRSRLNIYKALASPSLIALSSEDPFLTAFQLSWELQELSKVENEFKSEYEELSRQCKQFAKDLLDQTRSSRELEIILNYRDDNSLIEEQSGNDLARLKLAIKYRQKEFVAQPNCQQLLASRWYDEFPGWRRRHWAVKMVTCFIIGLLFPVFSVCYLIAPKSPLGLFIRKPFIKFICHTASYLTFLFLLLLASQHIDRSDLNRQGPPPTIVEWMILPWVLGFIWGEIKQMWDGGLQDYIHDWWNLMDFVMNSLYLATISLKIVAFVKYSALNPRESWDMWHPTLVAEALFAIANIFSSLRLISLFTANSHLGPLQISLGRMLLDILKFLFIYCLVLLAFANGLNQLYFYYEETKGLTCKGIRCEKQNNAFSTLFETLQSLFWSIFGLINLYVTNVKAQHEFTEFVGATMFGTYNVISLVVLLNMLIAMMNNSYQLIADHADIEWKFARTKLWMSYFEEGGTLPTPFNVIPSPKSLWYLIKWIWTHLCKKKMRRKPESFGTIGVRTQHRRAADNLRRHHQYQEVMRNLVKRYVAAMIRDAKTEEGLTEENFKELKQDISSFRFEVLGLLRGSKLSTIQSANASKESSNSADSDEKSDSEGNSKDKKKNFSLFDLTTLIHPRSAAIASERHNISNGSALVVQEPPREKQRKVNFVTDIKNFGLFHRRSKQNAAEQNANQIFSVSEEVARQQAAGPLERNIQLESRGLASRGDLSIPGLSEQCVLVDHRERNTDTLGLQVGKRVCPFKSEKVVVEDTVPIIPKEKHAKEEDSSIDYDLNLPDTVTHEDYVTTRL
Test: TRPC4 FLIPR Assay (HEK-TREx hTRPC4, Englerin A stimulation)
Type: cell-based
Method: FLIPR Assay Buffer (Earls Balanced Salt Solution (EBSS)) was prepared as follows:
10-point dose response curves were generated using the Echo-550 acoustic dispenser. Compound source plates were made by serially diluting compound stocks to create 10 mM, 1 mM, and 0.1 mM solutions in DMSO into Echo certified LDV plates. The Echo then serially spotted 100% DMSO stock solutions into source dose response plates to generate a 4-fold dilution scheme. 100% DMSO was added to the spotted dose response plates to bring the final volume to 5 μl. […] of the dose response stock plate was then spotted into pre-incubation and stimulation assay plates. […] of pre-incubation buffer and 100 μl of stimulation buffer was then added to the plates resulting in a final assay test concentration range of 30 μM to 0.0001 μM with a final DMSO concentration of 0.3%.
Experimental Methods: Cells expressing TRPC4 were plated onto 384 well, black pdl-coated microplates and maintained in TRPC4 growth media the day prior to use for experiments. TRPC4 expression was induced by the application of 1 μg/ml tetracycline at the time of plating. […] Cells were incubated at room temperature, protected from light, for 60-90 minutes. After the incubation period, the dye was removed and replaced with 10 μl of EBSS. Cell, pre-incubation and stimulation plates were loaded onto the FLIPR-II and the assay was initiated. The FLIPR measured a 10 second baseline and then added 10 μl of 2× compounds (or controls). Changes in fluorescence were monitored for an additional 5 minutes. After a 5 minute pre-incubation, 20 μl of 2× Englerin A (with 1× compound or controls) was added to the cell plate. The final Engerlin A stimulation concentration in the assay is 100 nM. After the Englerin A addition, changes in fluorescence were monitored for an additional 5 minutes.
Test Agent Effect: Test agent modulation of TRPC4 calcium response was determined as follows. After the Englerin A, fluorescence was monitored for a 5 minute period. The maximum relative fluorescence response (minus the control response of […] of the control inhibitor) was captured and exported from the FLIPR. Test agent effect was calculated as % inhibition using the following formula: % inhibition=((RFU TEST AGENT−Plate Average RFU REF INHIB)/(Plate Average RFU CONTROL−Plate Average RFU REF INHIB))×100

[1] = Table 8, HEK-TREx hTRPC4, read-out: TRPC4 FLIPR IC50

SMILES	IC50 [1] [nM]	IC50 [nM]
C[C@@H](c1ccccc1)n1nnc2c1CCN(c1cn[nH]c(=O)c1Cl)C2	1000 to 5000	
Cc1ccccc1CN1C[C@@H](C)N(c2cn[nH]c(=O)c2Cl)CC1=O	5000 to 10000	
O=C1CN(c2cn[nH]c(=O)c2Cl)CCN1Cc1cc(F)ccc1C(F)(F)F		0.01 to 1000
CCc1ncccc1CN1CCN(c2cn[nH]c(=O)c2Cl)C(C)C1 (stereo not drawn)	5000 to 10000	
CCc1ncccc1CN1CCN(c2cn[nH]c(=O)c2C#N)CC1	5000 to 10000	
CCc1nccc(C)c1CN1CCN(c2cn[nH]c(=O)c2Cl)CC1	1000 to 5000	
O=c1[nH]ncc(N2CCc3c(ncn3-c3ccccc3C(F)(F)F)C2)c1Cl [drawing 954]	1000 to 5000	
N#Cc1c(N2CCc3c(ncn3Cc3ccccc3C(F)(F)F)C2)cn[nH]c1=O [drawing 956]	1000 to 5000	
N#Cc1c(N2CCc3c(nnn3Cc3ccccc3C(F)(F)F)C2)cn[nH]c1=O [drawing 959]	1000 to 5000	
COCc1ncccc1Cn1cnc2c1CCN(c1cn[nH]c(=O)c1Cl)C2 [drawing 966]	1000 to 5000	
C[C@H](c1ccccc1C(F)(F)F)n1nnc2c1CCN(c1cn[nH]c(=O)c1Cl)[C@H]2C [drawing 970]	0.01 to 1000	
CCS(=O)(=O)c1nc2c(n1Cc1ccccc1C(F)(F)F)CCN(c1cn[nH]c(=O)c1Cl)C2 [drawing 971]	0.01 to 1000	
O=c1[nH]ncc(N2CCc3c(c(=O)[nH]n3Cc3ccccc3C(F)(F)F)C2)c1Cl [drawing 972]	0.01 to 1000	
C[C@@H]1Cc2c(nnn2[C@@H](C)c2ccc(F)cc2C(F)(F)F)CN1c1cn[nH]c(=O)c1Cl [drawing 974]	0.01 to 1000	
CN1CCN(Cc2nn(Cc3ccccc3C(F)F)c3c2CN(c2cn[nH]c(=O)c2Cl)CC3)C(=O)C1 [drawing 975]	0.01 to 1000	
C[C@H](c1ccc(F)cc1C(F)(F)F)n1nnc2c1CCN(c1cn[nH]c(=O)c1Cl)[C@H]2C [drawing 976]	0.01 to 1000	
C[C@H](c1ccccc1C(F)F)n1nnc2c1CCN(c1cn[nH]c(=O)c1Cl)C2 [drawing 977]	0.01 to 1000	
C[C@@H](c1ccccc1C(F)F)n1nnc2c1CCN(c1cn[nH]c(=O)c1Cl)C2 [drawing 980]	0.01 to 1000	

SMILES	IC50 [1] [nM]	IC50 [nM]
C[C@@H](c1ccc(F)cc1C(F)F)n1nnc2c1CCN(c1cn[nH]c(=O)c1Cl)C2 [drawing 981]	0.01 to 1000	
CNC(=O)c1nn([C@H](C)c2ccccc2C(F)F)c2c1CN(c1cn[nH]c(=O)c1Cl)CC2 [drawing 982]	0.01 to 1000	
CC(c1ccc(F)cc1C(F)F)n1nc(C(N)=O)c2c1CCN(c1cn[nH]c(=O)c1Cl)C2 (stereo not drawn) [drawing 983]	0.01 to 1000	
CNC(=O)c1nn(Cc2ccc(F)cc2C(F)F)c2c1CN(c1cn[nH]c(=O)c1Cl)CC2 [drawing 985]	0.01 to 1000	
C[C@@H]1Cc2c(c(C(N)=O)nn2Cc2ccccc2C(F)(F)F)CN1c1cn[nH]c(=O)c1Cl [drawing 986]	0.01 to 1000	
C[C@@H](c1ccccc1C(F)(F)F)N1CCN(c2cn[nH]c(=O)c2Cl)CC1=O [drawing 987]	0.01 to 1000	
COC[C@H](c1ccccc1C(F)(F)F)n1cnc2c1CCN(c1cn[nH]c(=O)c1Cl)C2 [drawing 988]	0.01 to 1000	
C[C@H](c1ccccc1C(F)(F)F)n1nc(C(N)=O)c2c1CCN(c1cn[nH]c(=O)c1Cl)C2 [drawing 990]	0.01 to 1000	
C[C@@H](c1cccnc1CC(F)F)n1nnc2c1CCN(c1cn[nH]c(=O)c1Cl)C2 [drawing 991]	0.01 to 1000	
C[C@H](c1ccc(F)cc1C(F)(F)F)N1C[C@@H](C)N(c2cn[nH]c(=O)c2Cl)CC1=O [drawing 992]	0.01 to 1000	
C[C@@H](c1ccc(F)cc1C(F)(F)F)N1CCN(c2cn[nH]c(=O)c2Cl)CC1=O [drawing 993]	0.01 to 1000	
O=c1[nH]ncc(N2CCc3c(nnn3Cc3ccc(F)cc3CC(F)(F)F)C2)c1Cl [drawing 994]	0.01 to 1000	
C[C@H](c1ccccc1Cl)n1nnc2c1CCN(c1cn[nH]c(=O)c1Cl)C2 [drawing 995]	0.01 to 1000	
CNC(=O)c1nc2c(n1Cc1ccccc1C(F)(F)F)CCN(c1cn[nH]c(=O)c1Cl)C2 [drawing 996]	0.01 to 1000	
NC(=O)c1nc2c(n1Cc1ccccc1C(F)(F)F)CCN(c1cn[nH]c(=O)c1Cl)C2 [drawing 997]	0.01 to 1000	
O=c1[nH]ncc(N2CCc3c(ncn3Cc3ccc(F)cc3Cl)C2)c1Cl [drawing 998]	0.01 to 1000	
O=c1[nH]ncc(N2CCc3c(ncn3Cc3ccccc3Cl)C2)c1Cl [drawing 1000]	0.01 to 1000	
C[C@@H](c1ccccc1Cl)n1nnc2c1CCN(c1cn[nH]c(=O)c1Cl)C2 [drawing 1001]	0.01 to 1000	

The remaining lines, values ahead:

IC50 [1] [nM]	IC50 [nM]	SMILES
0.01 to 1000		O=c1[nH]ncc(N2CCc3c(ncn3Cc3ccccc3OC(F)(F)F)C2)c1Cl
0.01 to 1000		CCc1ncccc1CN1CCN(c2cn[nH]c(=O)c2Cl)CC1
0.01 to 1000		O=C1CN(c2cn[nH]c(=O)c2Cl)CCN1Cc1ccccc1Cl
0.01 to 1000		O=C1CN(c2cn[nH]c(=O)c2Cl)CCN1Cc1ccccc1C(F)F
0.01 to 1000		CCc1ccccc1Cn1cnc2c1CCN(c1cn[nH]c(=O)c1Cl)C2
0.01 to 1000		C[C@@H](c1ccccc1C(F)(F)F)n1nnc2c1CCN(c1cn[nH]c(=O)c1C#N)C2
0.01 to 1000		CC(c1ccc(F)cc1C(F)F)n1[nH]c(=O)c2c1CCN(c1cn[nH]c(=O)c1Cl)C2 (stereo not drawn)
0.01 to 1000		Cc1ccccc1CN1CCN(c2cn[nH]c(=O)c2Br)CC1=O
0.01 to 1000		Cc1ccccc1[C@@H](C)N1CCN(c2cn[nH]c(=O)c2Cl)CC1=O
0.01 to 1000		C[C@@H](c1ccc(F)cc1C(F)(F)F)n1nnc2c1CCN(c1cn[nH]c(=O)c1Cl)C2
0.01 to 1000		Cc1ccccc1Cn1cnc2c1CCN(c1cn[nH]c(=O)c1Cl)C2 [drawing 938]
0.01 to 1000		O=c1[nH]ncc(N2CCc3c(ncn3Cc3ccccc3)C2)c1Cl [drawing 939]
0.01 to 1000		C[C@H](c1ccccc1)n1cnc2c1CCN(c1cn[nH]c(=O)c1Cl)C2 [drawing 940]
0.01 to 1000		O=c1[nH]ncc(N2CCc3c(ncn3Cc3ccc(F)cc3C(F)(F)F)C2)c1Cl [drawing 942]
0.01 to 1000		O=c1[nH]ncc(N2CCc3c(ncn3Cc3ccccc3C(F)(F)F)C2)c1Cl [drawing 944]
0.01 to 1000		O=c1[nH]ncc(N2CCc3c(nnn3Cc3ccccc3C(F)(F)F)C2)c1Cl [drawing 948]
0.01 to 1000		O=c1[nH]ncc(N2CCc3c(ncn3Cc3ccccc3C(F)(F)F)C2)c1Br [drawing 950]
0.01 to 1000		O=c1[nH]ncc(N2CCc3c(cnn3Cc3ccc(F)cc3C(F)(F)F)C2)c1Cl [drawing 951]
0.01 to 1000		O=c1[nH]ncc(N2CCc3c(ncn3Cc3ccccc3C(F)F)C2)c1Cl [drawing 952]
0.01 to 1000		CCc1cc(F)ccc1Cn1cnc2c1CCN(c1cn[nH]c(=O)c1Cl)C2 [drawing 958]
0.01 to 1000		O=c1[nH]ncc(N2CCc3c(ncn3Cc3ccc(F)cc3C(F)F)C2)c1Cl [drawing 960]
0.01 to 1000		C[C@@H](c1ccccc1C(F)(F)F)n1nnc2c1CCN(c1cn[nH]c(=O)c1Cl)C2 [drawing 962]
0.01 to 1000		COCc1ccccc1Cn1cnc2c1CCN(c1cn[nH]c(=O)c1Cl)C2 [drawing 965]
0.01 to 1000		C[C@@H]1Cc2c(nnn2[C@@H](C)c2ccccc2C(F)(F)F)CN1c1cn[nH]c(=O)c1Cl [drawing 968]
